Laboratory results: PubChem BioAssay AID192 (DTP/NCI, 2004)
“And” between values parts separate entries of the source, which are not always exact repeats. Equal entries are not always repeated. Inconclusive results and toxic doses are left out.

Test system: BDF1 mice, B16 melanoma ip, median survival T/C
Assay: NCI In Vivo Anticancer Drug Screen. Data for tumor model B16 Melanoma (intraperitoneal) in B6D2F1 (BDF1) mice
Settings: endpoint: median survival time, higher = longer survival
Procedure: The antitumor activity of compounds was measured in mice bearing transplantable tumors. Survival or tumor size were measured and the results are expressed as the measurement made in the treated group (T) divided by the measurement made in the vehicle treated control group (C). The tumor model used in this assay is B16 Melanoma (intraperitoneal) in B6D2F1 (BDF1) mice

[1] = dose: 100.0 mg/kg/injection, schedule: Q01DX009 (ip), vehicle: Klucel (hydroxypropylcellulose) (HPC)
[2] = dose: 200.0 mg/kg/injection, schedule: Q01DX009 (ip), vehicle: Klucel (hydroxypropylcellulose) (HPC)
[3] = dose: 400.0 mg/kg/injection, schedule: Q01DX009 (ip), vehicle: Klucel (hydroxypropylcellulose) (HPC)
[4] = dose: 100.0 mg/kg/injection, schedule: Q04DX003 (ip), vehicle: saline with Tween-80
[5] = dose: 200.0 mg/kg/injection, schedule: Q04DX003 (ip), vehicle: saline with Tween-80
[6] = dose: 50.0 mg/kg/injection, schedule: Q01DX009 (ip), vehicle: Klucel (hydroxypropylcellulose) (HPC)
[7] = dose: 100.0 mg/kg/injection, schedule: Q01DX009 (ip), vehicle: saline with Tween-80
[8] = dose: 200.0 mg/kg/injection, schedule: Q01DX009 (ip), vehicle: saline with Tween-80
[9] = dose: 6.25 mg/kg/injection, schedule: Q01DX009 (ip), vehicle: saline with Tween-80
[10] = dose: 12.5 mg/kg/injection, schedule: Q01DX009 (ip), vehicle: saline with Tween-80
[11] = dose: 25.0 mg/kg/injection, schedule: Q01DX009 (ip), vehicle: saline with Tween-80
[12] = dose: 50.0 mg/kg/injection, schedule: Q01DX009 (ip), vehicle: saline with Tween-80

Cc1cn(C2CC(O)C(CO)O2)c(=O)[nH]c1=O (configuration not stated)
T/C (dose: 12.5 mg/kg/injection, schedule: Q01DX009 (ip), vehicle: saline): 88 % of control
T/C (dose: 32.0 mg/kg/injection, schedule: Q01DX009 (ip), vehicle: saline with Tween-80): 111 % of control
T/C (dose: 32.0 mg/kg/injection, schedule: Q01DX009 (ip), vehicle: saline): 95 % of control and 108 % of control
T/C (dose: 50.0 mg/kg/injection, schedule: Q03HX032 (ip), vehicle: saline): 105 % of control
T/C (dose: 64.0 mg/kg/injection, schedule: Q01DX009 (ip), vehicle: saline with Tween-80): 120 % of control
T/C (dose: 64.0 mg/kg/injection, schedule: Q01DX009 (ip), vehicle: saline): 100 % of control and 101 % of control
T/C (dose: 100.0 mg/kg/injection, schedule: Q01DX009 (ip), vehicle: saline): 103 % of control
T/C (dose: 100.0 mg/kg/injection, schedule: Q03HX032 (ip), vehicle: saline): 97 % of control
T/C (dose: 128.0 mg/kg/injection, schedule: Q01DX009 (ip), vehicle: saline with Tween-80): 120 % of control
T/C (dose: 128.0 mg/kg/injection, schedule: Q01DX009 (ip), vehicle: saline): 98 % of control and 103 % of control
T/C (dose: 150.0 mg/kg/injection, schedule: Q02HX012 (ip), vehicle: saline): 103 % of control
T/C (dose: 200.0 mg/kg/injection, schedule: Q01DX009 (ip), vehicle: saline): 89 % of control
T/C (dose: 200.0 mg/kg/injection, schedule: Q02HX012 (ip), vehicle: saline): 102 % of control
T/C (dose: 200.0 mg/kg/injection, schedule: Q03HX032 (ip), vehicle: saline): 89 % of control
T/C (dose: 256.0 mg/kg/injection, schedule: Q01DX009 (ip), vehicle: saline with Tween-80): 120 % of control
T/C (dose: 256.0 mg/kg/injection, schedule: Q01DX009 (ip), vehicle: saline): 96 % of control and 102 % of control
T/C (dose: 300.0 mg/kg/injection, schedule: Q02HX012 (ip), vehicle: saline): 102 % of control
T/C (dose: 400.0 mg/kg/injection, schedule: Q02HX012 (ip), vehicle: saline): 102 % of control
T/C (dose: 400.0 mg/kg/injection, schedule: Q03HX032 (ip), vehicle: saline): 92 % of control
T/C (dose: 512.0 mg/kg/injection, schedule: Q01DX009 (ip), vehicle: saline with Tween-80): 91 % of control
T/C (dose: 512.0 mg/kg/injection, schedule: Q01DX009 (ip), vehicle: saline): 104 % of control and 107 % of control
T/C (dose: 600.0 mg/kg/injection, schedule: Q02HX012 (ip), vehicle: saline): 97 % of control

COC(=O)CCCCCNC(=O)NCCCCCC(=O)OC
T/C (dose: 100.0 mg/kg/injection, schedule: Q04DX003 (ip), vehicle: Klucel (hydroxypropylcellulose) (HPC)): 86 % of control
T/C (dose: 200.0 mg/kg/injection, schedule: Q04DX003 (ip), vehicle: Klucel (hydroxypropylcellulose) (HPC)): 95 % of control
T/C (dose: 400.0 mg/kg/injection, schedule: Q04DX003 (ip), vehicle: Klucel (hydroxypropylcellulose) (HPC)): 91 % of control

O=C(Nc1ccccc1Cl)OCC(Cl)(Cl)Cl
T/C (dose: 75.0 mg/kg/injection, schedule: Q04DX003 (ip), vehicle: Klucel (hydroxypropylcellulose) (HPC)): 96 % of control
T/C (dose: 150.0 mg/kg/injection, schedule: Q04DX003 (ip), vehicle: Klucel (hydroxypropylcellulose) (HPC)): 91 % of control
T/C (dose: 300.0 mg/kg/injection, schedule: Q04DX003 (ip), vehicle: Klucel (hydroxypropylcellulose) (HPC)): 102 % of control

Cn1c(=O)c2[nH]c(Cc3ccc4c(c3)OCO4)nc2n(C)c1=O
T/C (dose: 0.25 mg/kg/injection, schedule: Q01DX009 (ip), vehicle: Klucel (hydroxypropylcellulose) (HPC)): 96 % of control
T/C (dose: 0.5 mg/kg/injection, schedule: Q01DX009 (ip), vehicle: Klucel (hydroxypropylcellulose) (HPC)): 94 % of control
T/C (dose: 1.0 mg/kg/injection, schedule: Q01DX009 (ip), vehicle: Klucel (hydroxypropylcellulose) (HPC)): 96 % of control
T/C (dose: 2.0 mg/kg/injection, schedule: Q01DX009 (ip), vehicle: Klucel (hydroxypropylcellulose) (HPC)): 93 % of control

Cc1nc(/N=N/c2nc(C)c(C)[nH]2)[nH]c1C
T/C [1]: 102 % of control
T/C [2]: 101 % of control
T/C [3]: 96 % of control

CC1(C)OCC(CO)(Nc2nc(N3CC3)nc(N3CC3)n2)CO1
T/C (dose: 0.31 mg/kg/injection, schedule: Q01DX009 (ip), vehicle: saline): 105 % of control and 112 % of control

COc1c(O)c2c(c3cc(C(=O)N4CCc5c4c(O)c(OC)c4[nH]c(C(=O)N6CC7CC78C6=CC(=O)c6[nH]cc(C)c68)cc54)[nH]c13)CCN2C(N)=O (configuration not stated)
T/C (dose: 10.0 micrograms/kg/injection, schedule: Q01DX009 (ip), vehicle: other): 181 % of control

NNC(=O)c1nc(N)n[nH]1
T/C (dose: 100.0 mg/kg/injection, schedule: Q04DX003 (ip), vehicle: saline): 103 % of control
T/C (dose: 200.0 mg/kg/injection, schedule: Q04DX003 (ip), vehicle: saline): 104 % of control
T/C (dose: 400.0 mg/kg/injection, schedule: Q04DX003 (ip), vehicle: saline): 103 % of control

CC#CCOCC(CCl)OC(=O)Nc1ccccc1 (configuration not stated)
T/C [4]: 93 % of control
T/C [5]: 97 % of control
T/C (dose: 400.0 mg/kg/injection, schedule: Q04DX003 (ip), vehicle: saline with Tween-80): 90 % of control

COc1cc2c(cc1OC)C1CNC(=O)C1C(c1ccccc1)C2 (configuration not stated)
T/C (dose: 2.5 mg/kg/injection, schedule: Q01DX009 (ip), vehicle: Klucel (hydroxypropylcellulose) (HPC)): 91 % of control
T/C (dose: 3.75 mg/kg/injection, schedule: Q01DX009 (ip), vehicle: Klucel (hydroxypropylcellulose) (HPC)): 91 % of control
T/C (dose: 5.0 mg/kg/injection, schedule: Q01DX009 (ip), vehicle: Klucel (hydroxypropylcellulose) (HPC)): 98 % of control
T/C (dose: 7.5 mg/kg/injection, schedule: Q01DX009 (ip), vehicle: Klucel (hydroxypropylcellulose) (HPC)): 97 % of control
T/C (dose: 10.0 mg/kg/injection, schedule: Q01DX009 (ip), vehicle: Klucel (hydroxypropylcellulose) (HPC)): 94 % of control
T/C (dose: 15.0 mg/kg/injection, schedule: Q01DX009 (ip), vehicle: Klucel (hydroxypropylcellulose) (HPC)): 92 % of control

Cc1ccc(CNc2ccc(Br)cc2)cc1
T/C [1]: 94 % of control
T/C [2]: 91 % of control

CCOC(=O)C(Cc1ccc(Cl)cc1)(Cc1ccc(Cl)cc1)C(=O)OCC
T/C [1]: 106 % of control
T/C [2]: 100 % of control
T/C [3]: 93 % of control

Nn1c(=O)[nH][nH]c1=O
T/C [6]: 92 % of control
T/C [1]: 110 % of control
T/C [7]: 115 % of control
T/C [2]: 89 % of control
T/C [8]: 105 % of control
T/C (dose: 400.0 mg/kg/injection, schedule: Q01DX009 (ip), vehicle: saline with Tween-80): 105 % of control

CN(C)CCC[N+]1([O-])c2ccccc2CCc2ccccc21
T/C (dose: 4.68 mg/kg/injection, schedule: Q01DX009 (ip), vehicle: saline): 97 % of control
T/C (dose: 9.37 mg/kg/injection, schedule: Q01DX009 (ip), vehicle: saline): 118 % of control
T/C (dose: 18.75 mg/kg/injection, schedule: Q01DX009 (ip), vehicle: saline): 95 % of control
T/C (dose: 37.5 mg/kg/injection, schedule: Q01DX009 (ip), vehicle: saline): 100 % of control
T/C (dose: 75.0 mg/kg/injection, schedule: Q04DX003 (ip), vehicle: saline): 96 % of control

C=CCNc1ccc(C)cc1
T/C (dose: 12.5 mg/kg/injection, schedule: Q01DX009 (ip), vehicle: Klucel (hydroxypropylcellulose) (HPC)): 105 % of control
T/C (dose: 25.0 mg/kg/injection, schedule: Q01DX009 (ip), vehicle: Klucel (hydroxypropylcellulose) (HPC)): 96 % of control
T/C [6]: 88 % of control
T/C [1]: 91 % of control

COC1=CC(=O)C(OC)=C(OC)C1=O
T/C (dose: 3.12 mg/kg/injection, schedule: Q01DX009 (ip), vehicle: saline with Tween-80): 98 % of control
T/C [9]: 98 % of control
T/C [10]: 100 % of control
T/C [11]: 101 % of control
T/C [12]: 93 % of control

NC(N)=NC1=NC(=O)CS1
T/C (dose: 50.0 mg/kg/injection, schedule: Q04DX003 (ip), vehicle: saline with Tween-80): 102 % of control
T/C [1]: 93 % of control
T/C [4]: 102 % of control
T/C [2]: 90 % of control
T/C [5]: 100 % of control

CCCCCCCCCCCCNC(=O)Nc1cc(C)ccc1C
T/C [1]: 92 % of control
T/C [2]: 96 % of control

O=C1CSC(=S)N1c1ccco1
T/C [12]: 92 % of control
T/C [7]: 90 % of control
T/C [8]: 87 % of control

CC1=CCC(C(C)(C)c2ccc(O)cc2)CC1 (configuration not stated)
T/C [9]: 96 % of control
T/C [10]: 105 % of control
T/C [11]: 102 % of control and 106 % of control
